Test results: patent publication US5376658A, “5,10-methylene-tetrahydrofolate as a modulator of a chemotherapeutic agent” (priority 1993, dated 1994)

How the values were obtained:
[1] = test system: CCRF-CEM cells; experiment: Intracellular CH2 FH4 and FH4 levels in CCRF-CEM cells after exposure to 10 μM folate; type: cell-based, human; details: for Intracellular FH4: control 3.08
Description: In further support of the hypothesis that objectives of CH2 FH4 administration are increases in FH4 and FH4 /CH2 FH4 values, are the results of a cell culture study, shown in Table VI, comparing the relative effectiveness of different folate forms on assayed intracellular levels of the two folates.

[2] = test system: thymidylate synthase (TS); experiment: TS level in serial tumor biopsies, patient three (skin metastasis from gastric carcinoma), [6-3H]FdUMP ligand-binding assay; type: in vivo, human; details: for TS, % of Baseline / Thymidylate synthase (TS): 30 mg IV; for Thymidylate synthase (TS): baseline 1.31
Description: The assays were performed by the methods described in Spears et al., Adv. […] The serial biopsies were done following single dose administration of CH2 FH4.
The assays were also performed on the day of CH2 FH4 administration.

[3] = cited from earlier work
[4] = test system: thymidylate synthase (TS); experiment: TS level in serial tumor biopsies, patient one (rectal adenocarcinoma), [6-3H]FdUMP ligand-binding assay; type: in vivo, human
Description: CH2 FH4 was formulated, assayed, and administered to 2 patients who had previously been treated with 5-FU. The assays were performed by the methods described in Spears et al., Adv. Exp. Med. Biol. 244:98-104 (1988). In the data shown, the TS inhibition profiles that resulted from CH2 FH4 administration were not due to concurrent 5-FU dosing. The most recent exposure to 5-FU in these cases was slightly greater than a week prior to the study date, with the patients eligible, however, from the standpoint of toxicity evaluation to receive the weekly dose of 5-FU. Thus, residual FdUMP levels from previous exposure, below the detectable limits for assay, were expected to be present (See spears et al. Mol. Pharmacol. 27:302-07 (1985)). The serial biopsies were done following single dose administration of CH2 FH4.
The formulation of CH2 FH4 was as described in Example 2, and was performed on the day of CH2 FH4 administration. The assays were also performed on the day of CH2 FH4 administration.
^a On Week #1 the CH2 FH4 was formulated at pH 2.0,
DEAEpurified; On Week #2 the preparation was pH 9.0, with 6 mM (final
concentration) CH2 O added, no DEAE step used.
^c By [6^3 H]FdUMP ligandbinding assay (Spears et al., Cancer Res
In patient one, a person with locally unresectable advanced rectal adenocarcinoma, the TS pharmacodynamic tumor tissue analyses were done twice, nine days apart. Following study, the person continued to receive intermittent bolus 5-FU. […] There were modifications of the CH2 FH4 formulation between the 2 pharmacodynamic studies (See Table III). In the first study week, the pH was not adjusted up from 2.0, after DEAE column isolation of the Sigma (6R,S)-CH2 FH4. Thus, some of this folate may also have been 5,10-methenyl-tetrahydrofolate. In the second study week, the pH was adjusted up to 9.0, and no DEAE step was used (with therefore 6 mM formaldehyde being present in the 40-cc volume for injection).

[5] = biological target: T1, L. casei TS-[3H]FdUMP (Lacticaseibacillus casei, UniProt P00469); experiment: TS-[3H]FdUMP-folate ternary complex binding assay
T1 sequence (P00469 1-316): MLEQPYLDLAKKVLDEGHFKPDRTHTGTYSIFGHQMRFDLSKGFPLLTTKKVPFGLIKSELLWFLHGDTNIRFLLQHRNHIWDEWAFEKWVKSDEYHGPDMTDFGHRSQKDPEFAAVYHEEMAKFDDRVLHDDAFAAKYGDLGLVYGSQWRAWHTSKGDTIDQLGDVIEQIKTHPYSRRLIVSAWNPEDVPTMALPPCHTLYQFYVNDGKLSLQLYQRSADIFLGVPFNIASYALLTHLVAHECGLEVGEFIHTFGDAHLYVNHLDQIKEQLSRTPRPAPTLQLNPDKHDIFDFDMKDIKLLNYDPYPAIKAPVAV
Description: The CH2 FH4 was prepared as the racemic (6R, S) material from (6R, S)-FH4 and excess formaldehyde, and DEAE-column isolation as described in FIG. 1. This preparation was essentially free of free formaldehyde based on colorimetric assay of bulk material (Nash, Biochem. J. 55:416-21 (1953)).
At all concentrations (total assays volume 150 μl ), excess formaldeyde was required to obtain maximal binding (which was still only 19.3% of stoichiometric binding). A notable effect was the increasing need for formaldehyde addition with increasing dilution, to obtain maximal CH2 FH4 assay recovery.
TS[^3 H]FdUMP-folate ternary complex formation without formaldehyde
addition was 38.5% of the value for the natural (6R)CH2 FH4 wit
6 mM formaldehyde added. (About 1 pmole of parent CH2 FH4 was
^b Only 11.8 ± 7.9% of maximal L. casei TS[^3 H]FdUMP-folate
ternary complex formation (using 6 mM formaldehyde concentration) which i
The unnatural diastereomer, (6S)-CH2 FH4 prepared by DEAE-column,potassium bicarbonate separation from the natural diasteromer as described in Example 8, was dissolved in 0.2M Tris-HCl buffer, pH 7.0, containing sodium ascorbate (100 mM) and 2-mercaptoethanol. This preparation was from the same lot of material described in Example 8. As noted in the footnote of Table VII, in the absence of supplemental formaldehyde, the yield of dextrancharcoal isolated complex was 38.5% of the value for the natural (6R)-CH2 FH4 (with added 6 mM formaldehyde).

[6] = test system: CH2 FH4 and FH4 in breast cancer biopsies; experiment: CH2 FH4 and FH4 levels in breast cancer biopsies during L-serine infusion after high-dose (6R,S)-leucovorin; type: in vivo, human; parameters: CH2 FH4 / FH4: unit not given here; details: patient two
Description: As noted previously (see pages 5-6) and mentioned in C. P. Spears, et al., Proc. Am. Soc. Clin. Oncol. 8:69 (1989), the inventors have used pharmacologic intervention to convert intracellular FH4 to CH2 FH4 in patients receiving high-dose reduced folate therapy combined with weekly i.v. bolus 5-FU, 450 mg/sq. m. The method used was administration of i.v. L-serine, 15.0 grams, over 1 hour after the end of overnight high-dose (6R,S)-leucovorin i.v. infusion.
In contrast to the data shown in Tables II and III, the inventors were able to also assay for intratumoral FH4 in addition to CH2 FH4 (this latter is also referred to as "FBC" in those Tables or Folate-Binding Capacity), at time points during this pharmacologic forcing of metabolism of FH4 to CH2 FH4 through the enzyme, serine hydroxymethyltransferase. This enzyme splits a carbon of L-serine to generate formaldehyde in the presence of FH4.
^a Minutes after initiation of 15.0 gram LSerine i.v. 60min infusion,
after end of overnight (6R,S)leucovorin highdose i.v. infusion.
^b Assays performed as described (C.P. Spears et al., Adv. Exp. Med.

[7] = test system: transplanted colon cancer; experiment: Comparison of natural and unnatural CH2 FH4 diastereomers in rats bearing transplanted colon cancer; type: in vivo, rat; details: 15 mg/kg, Day 17, no fluorinated pyrimidine
Description: A study has been completed, for comparison of natural (6R)-CH2 FH4 and unnatural (6S)-CH2 FH4 diastereomers. The preparation of the two forms was done as described by Kisliuk, et al., Cancer Treat. Rep. 61:647-50 (1977), using DEAE-cellulose column chromatography, with elution by potassium bicarbonate buffer. The two separate major peaks were individually pooled, lyophilized to dryness, and used for injection. As in the original detailed description of the method of Kisliuk, et al. (Biochem. 20:929-934), the methylene content was substoichiometric with tetrahydrofolate (FH4). That is, methylene units were present in apparently lower concentration than FH4 concentrations.
Rats bearing the transplanted colon cancer, as described in Example 4 and in Carlsson, et al., Anticancer. Res. 10:813-816, 1991, were treated with either the (6R)-CH2 FH4 or the (6S)-CH2 FH4, formulated and injected according to the methods described in Table IV, except that the injected amounts were 15 mg/kg per dose.
At Day 17, the rats were sacrificed, and the tumors were measured for both volume end weight. Volumes were calculated by the equation for an ellipsoid in revolution, V=(4/3)πab^2 were a=the long diameter/2 and b=the perpendicular short diameter/2.
The filled circles are the weights and volumes of tumors of rats treated with the unnatural (6S)-CH2 FH4 diastereomer (mostly (6R)-FH4 material in dilute solution and blood); the triangles are results for the natural (6R)-CH2 FH4 (mostly (6S)-FH4); and the open circles, control non-treated tumors. It is emphasized here that no fluorinated pyrimidine was used, just the folate injections.

[8] = 0 min (start of L-serine, after overnight leucovorin)

In the case of Nc1nc2c(c(=O)[nH]1)N(C=O)[C@@H](CNc1ccc(C(=O)N[C@@H](CCC(=O)O)C(=O)O)cc1)CN2 [(6S)-LV], the “Intracellular FH4” value ([1]; 16-hr exposure) is reported as 10.64 nmole/10^9 Cells.

In the case of CN1c2c(nc(N)[nH]c2=O)NC[C@H]1CNc1ccc(C(=O)N[C@@H](CCC(=O)O)C(=O)O)cc1 [(6R,S)-MTHF, 5-methyl-(6R, S)-tetrahydrofolate], the “Intracellular FH4” value ([1]; 16-hr exposure) is reported as 10.55 nmole/10^9 Cells.

With Nc1nc2c(c(=O)[nH]1)N1CN(c3ccc(C(=O)N[C@@H](CCC(=O)O)C(=O)O)cc3)CC1CN2 (stereo partly shown) [CH2 FH4, 5,10-methylene-tetrahydrofolate] the “TS, % of Baseline” value ([2]; 10 min) was 19.8%, the “TS, % of Baseline” value ([2]; 20 min) was 42.7% and the “TS, % of Baseline” value ([2]; 40 min) was 75.6%. For the same compound, the “TS, % of Baseline” value ([2]; 60 min) was 112.2%, the “Thymidylate synthase (TS)” value ([2]; biopsy at 10 min) was 0.26 pmol/g and the “Thymidylate synthase (TS)” value ([2]; biopsy at 20 min) was 0.56 pmol/g. The “Thymidylate synthase (TS)” value ([2]; biopsy at 40 min) was 0.99 pmol/g, the “Thymidylate synthase (TS)” value ([2]; biopsy at 60 min) was 1.47 pmol/g and the “TS inhibition / decrease over baseline value” ([2]; 10 min (first biopsy)) was 80.2%. The TS inhibition ([2]; 20 min) was 57.3%, the “storage stability in solution” value ([3]; column-isolated, under argon at -80° C.) was “up to a year without decomposition” and the “stability in the presence of oxygen” value ([3]; solutions and powder, oxygen, catalyzed by light, acid, base, heavy metals) was “unstable”. For the same compound, the “TS, % of Baseline” value ([4]; Week #1, 35 mg IV, 10 min) was 212.4%, the “Thymidylate synthase (TS)” value ([4]; Week #1, 35 mg IV, 10 min, baseline 5.77) was 6.28 pmol/g and the “TS, % of Baseline” value ([4]; Week #1, 35 mg IV, 20 min) was 43.7%. The “Thymidylate synthase (TS)” value ([4]; Week #1, 35 mg IV, 20 min, baseline 5.77) was 2.26 pmol/g, the “TS, % of Baseline” value ([4]; Week #1, 35 mg IV, 30 min) was 114.1% and the “Thymidylate synthase (TS)” value ([4]; Week #1, 35 mg IV, 30 min, baseline 5.77) was 5.90 pmol/g. The “TS, % of Baseline” value ([4]; Week #1, 35 mg IV, 24 hr) was 122.2%, the “Thymidylate synthase (TS)” value ([4]; Week #1, 35 mg IV, 24 hr, baseline 5.77) was 6.32 pmol/g and the “TS, % of Baseline” value ([4]; Week #2, 50 mg IV, 10 min) was 181.7%. For the same compound, the “Thymidylate synthase (TS)” value ([4]; Week #2, 50 mg IV, 10 min, baseline 5.64) was 10.25 pmol/g, the “TS, % of Baseline” value ([4]; Week #2, 50 mg IV, 20 min) was 104.8% and the “Thymidylate synthase (TS)” value ([4]; Week #2, 50 mg IV, 20 min, baseline 5.64) was 5.91 pmol/g. For the same compound, the “TS, % of Baseline” value ([4]; Week #2, 50 mg IV, 30 min) was 35.8%, the “Thymidylate synthase (TS)” value ([4]; Week #2, 50 mg IV, 30 min, baseline 5.64) was 2.02 pmol/g and the “TS, % of Baseline” value ([4]; Week #2, 50 mg IV, 40 min) was 61.3%. The “Thymidylate synthase (TS)” value ([4]; Week #2, 50 mg IV, 40 min, baseline 5.64) was 3.46 pmol/g and the “maximal binding, % of stoichiometric binding” value ([5]; 0.2M Tris pH 7.4, excess formaldehyde (6 mM)) was 19.3%.

With Nc1nc2c(c(=O)[nH]1)N(C=O)[C@H](CNc1ccc(C(=O)N[C@@H](CCC(=O)O)C(=O)O)cc1)CN2 [LV, (6R,S)-5-formyl-tetrahydrofolate] the “Ratio of FH4/CH2 FH4” value ([6]; 0 min) was 12.2, the “CH2 FH4” value [6, 8] was 0.194 and the FH4 [6, 8] was 2.370.

In the case of Nc1nc2c(c(=O)[nH]1)N=C(CNc1ccc(C(=O)N[C@@H](CCC(=O)O)C(=O)O)cc1)CN2 [DHF, Dihydrofolate], the “Intracellular FH4” value ([1]; 16-hr exposure) is reported as 7.10 nmole/10^9 Cells.

In the case of Nc1nc2c(c(=O)[nH]1)N1CN(c3ccc(C(=O)N[C@@H](CCC(=O)O)C(=O)O)cc3)C[C@H]1CN2 [(6R)-CH2 FH4], the “Intracellular CH2 FH4” value ([1]; 90 min exposure, control 0.04) is reported as 0.19 nmole/10^9 Cells, the “Intracellular FH4” value ([1]; 90 min exposure) is reported as 8.81 nmole/10^9 Cells and the “Tumor volume ± SE” value ([7]; control 7.81) is reported as 12.58. For the same compound, the “Tumor weight ± SE” value ([7]; control 7.93) was 9.11 and the “% of maximal L. casei TS-[3H]FdUMP-folate ternary complex formation” value ([5]; maximal = using 6 mM formaldehyde) was 11.8 ± 7.9%.
